Consider eight molecules from patent US20090042724A1, “Fungicidal mixtures based on 2,4-disubstituted n-biphenylpyrazolecarboxamides” (priority 2005, published 2009).

Holding throughout (format): in vivo
One experiment has as its system Alternaria solani. The experiment is described as follows: Activity against early blight on tomatoes caused by Alternaria solani (protective spray, potted tomato plants). The conditions noted are these: 120 h, single active compound, efficacy in % of untreated control (Abbot), evaluated after 5 days, control 90% infection, read-out: Observed activity (% infection); for inhibition at 4 µg/mL: 4 mg/l; for inhibition at 1 µg/mL: 1 mg/l. How it is done:
(§1) The active compounds, separately or jointly, were prepared as a stock solution comprising 25 mg of active compound which was made up to 10 ml using a mixture of acetone and/or dimethyl sulfoxide and the emulsifier Uniperol® EL (wetting agent having an emulsifying and dispersing action based on ethoxylated alkylphenols) in a ratio by volume of solvent/emulsifier of 99:1. The mixture was then made up to 100 ml with water. This stock solution was diluted with the solvent/emulsifier/water mixture described to give the concentration of active compound stated below.
(§2) Alternatively, the active compounds epoxiconazole and pyraclostrobin were used as a commercial formulation and diluted with water to the stated active compound concentrations.
(§3) The visually determined percentages of infected leaf areas were converted into efficacies in % of the untreated control.
(§4) The efficacy (E) is calculated as follows using Abbot's formula: […]
(§5) α corresponds to the fungicidal infection of the treated plants in % and β corresponds to the fungicidal infection of the untreated (control) plants in %
(§6) An efficacy of 0 means that the infection level of the treated plants corresponds to that of the untreated control plants; an efficacy of 100 means that the treated plants were not infected.
(§7) The expected efficacies of active compound mixtures were determined using Colby's formula [R. S. Colby, “Calculating synergistic and antagonistic responses of herbicide combinations”, Weeds 15, 20-22 (1967)] and compared with the observed efficacies.
(§8) E=x+y−x·y/100 Colby's formula • E expected efficacy, expressed in % of the untreated control, when using the mixture of the active compounds A and B at the concentrations a and b; • x efficacy, expressed in % of the untreated control, when using the active compound A at the concentration a; • y efficacy, expressed in % of the untreated control, when using the active compound B at the concentration b;
Leaves of potted tomato plants were sprayed to runoff point with an aqueous suspension having the concentration of active compounds stated below. The next day, the leaves were infected with an aqueous spore suspension of Alternaria solani in a 2% biomalt solution having a density of 0.17×10^6 spores/ml. The plants were then placed in a water vapor-saturated chamber at temperatures between 20 and 22° C. After 5 days, the disease on the untreated, but infected control plants had developed to such an extent that the infection could be determined visually in %.

For experiment [1], the system named is Puccinia recondita. Kind of experiment: Protective activity against Puccinia recondita on wheat (brown rust of wheat). The conditions noted are these: single active compound, control 90% infection, read-out: Observed activity (% infection). How it is done: as §1, §2, §3, §4, §5, §6, §7, §8
Leaves of potted wheat seedlings of the cultivar “Kanzler” were sprayed to runoff point with an aqueous suspension having the concentration of active compound stated below. The next day the treated plants were inoculated with a spore suspension of brown rust of wheat (Puccinia recondita). The plants were then placed in a chamber at high atmospheric humidity (90 to 95%) at 20 to 22° C. for 24 hours. During this time, the spores germinated and the germ tubes penetrated into the leaf tissue. The next day, the test plants were returned to the greenhouse and cultivated at temperatures between 20 and 22° C. and 65 to 70% relative atmospheric humidity for a further 7 days. The extent of the rust fungus development on the leaves was then determined visually.

Experiment [2] relates to Pyrenophora [syn. Drechslera] teres. Kind of experiment: Activity against net blotch of barley caused by Pyrenophora teres, 1 day protective application. As to conditions: 144 h, single active compound, after 6 days, control 90% infection, read-out: Observed activity (% infection); for inhibition at 16 µg/mL: 16 mg/l. How it is done: as §1, §2, §3, §4, §5, §6
(§9) The expected efficacies of active compound mixtures were determined using Colby's formula [R. S. Colby, “Calculating synergistic and antagonistic responses of herbicide combinations”, Weeds 15, 20-22 (1967)] and compared with the observed efficacies. […]
Leaves of potted barley seedlings were sprayed to runoff point with an aqueous suspension having the concentration of active compound stated below. […] After 6 days, the extent of the development of the disease was determined visually in % infection of the entire leaf area.

The next experiment has as its system Botrytis cinerea. The experiment is described as follows: Activity against gray mold on bell pepper leaves caused by Botrytis cinerea, 1 day protective application. As to conditions: 120 h, single active compound, 1 mg/l, efficacy in % of untreated control, after 5 days, control 100% infection, read-out: Observed activity (% infection). As for the experimental part: The active compounds, separately or jointly, were prepared as a stock solution comprising 25 mg of active compound which was made up to 10 ml using a mixture of acetone and/or dimethyl sulfoxide and the emulsifier Uniperol® EL (wetting agent having an emulsifying and dispersing action based on ethoxylated alkylphenols) in a ratio by volume of solvent/emulsifier of 99:1. The mixture was then made up to 100 ml with water. This stock solution was diluted with the solvent/emulsifier/water mixture described to give the concentration of active compound stated below. […]
as §3, §4, §9
Bell pepper seedlings of the cultivar “Neusiedler Ideal Elite” were, after 2-3 leaves were well developed, sprayed to runoff point with an aqueous suspension in the active compound concentration stated below. […] After 5 days, the extent of the fungal infection on the leaves could be determined visually in %.

Experiment [3] relates to Puccinia recondita. Kind of experiment: Curative activity against brown rust of wheat caused by Puccinia recondita. As to conditions: 168 h, single active compound, sprayed the day after inoculation, 7 days, control 90% infection, read-out: Observed activity (% infection). As for the experimental part:
as §1, §2, §3, §4, §9
Leaves of wheat seedlings of the cultivar “Kanzler” cultivated in pots were inoculated with a spore suspension of brown rust (Puccinia recondita). […] The extent of the rust fungus development on the leaves was then determined.

Consider `CC1CCN(c2c(-c3c(F)cc(F)cc3F)c(Cl)nc3ncnn23)CC1` [5-chloro-7-(4-methylpiperidin-1-yl)-6-(2,4,6-trifluorophenyl)-[1,2,4]triazolo[1,5-a]pyrimidine], for which the inhibition at 4 µg/mL with Alternaria solani was determined as 22%.
Take `COc1cc(C)c(C(=O)c2c(OC)ccc(Br)c2C)c(OC)c1OC` [metrafenone, 3′-bromo-2,3,4,6′-tetramethoxy-2′,6-dimethylbenzophenone]: the inhibition at 63 µg/mL in the experiment with Puccinia recondita [1] (63 mg/l) was 0%. The inhibition at 16 µg/mL in experiment [2] amounted to 0%.
Regarding `COc1ccc(C(=CC(=O)N2CCOCC2)c2ccc(Cl)cc2)cc1OC` [dimethomorph, 3-(4-chlorophenyl)-3-(3,4-dimethoxyphenyl)-1-morpholin-4-ylpropenone], the inhibition at 16 µg/mL in experiment [2] worked out at 0%. The inhibition at 4 µg/mL with Alternaria solani stood at 0%.
Consider `COC(=O)N(OC)c1ccccc1COc1ccn(-c2ccc(Cl)cc2)n1` [pyraclostrobin, methyl N-{2-[1-(4-chlorophenyl)-1H-pyrazol-3-yloxymethyl]phenyl}(N-methoxy)carbamate], for which the inhibition at 1 µg/mL in the experiment on Botrytis cinerea was found to be 0%.
`Fc1ccc([C@]2(Cn3cncn3)O[C@H]2c2ccccc2Cl)cc1` (racemic) [epoxiconazole, (2RS,3SR)-1-[3-(2-chlorophenyl)-2,3-epoxy-2-(4-fluorophenyl)propyl]-1H-1,2,4-triazole]: the inhibition at 0.063 µg/mL with Puccinia recondita [1] (0.063 mg/l) worked out at 11%. In the experiment with Puccinia recondita [3] (0.25 mg/l), the inhibition at 0.25 µg/mL stood at 0%.
Take `Cn1cc(C(=O)Nc2ccccc2-c2ccc(Cl)cc2Cl)c(C(F)F)n1` [No. I.7, N-(2′,4′-dichlorobiphenyl-2-yl)-1-methyl-3-difluoromethyl-1H-pyrazole-4-carboxamide]: the inhibition at 0.25 µg/mL in the experiment on Puccinia recondita [1] (0.25 mg/l) worked out at 11%. The inhibition at 1 µg/mL with Alternaria solani was determined as 0%.
With `Cn1cc(C(=O)Nc2ccccc2-c2ccc(F)cc2F)c(C(F)F)n1` [No. I.11, N-(2′,4′-difluorobiphenyl-2-yl)-1-methyl-3-difluoromethyl-1H-pyrazole-4-carboxamide], in experiment [2] (4 mg/l), the inhibition at 4 µg/mL came out at 63%. Further, the inhibition at 1 µg/mL in the experiment on Botrytis cinerea and in the experiment on Alternaria solani was 0% each time.
With `Cn1nc(C(F)(F)F)c(C(=O)Nc2ccccc2-c2ccc(Cl)cc2Cl)c1F` [No. I.17, N-(2′,4′-dichlorobiphenyl-2-yl)-1-methyl-3-trifluoromethyl-5-fluoro-1H-pyrazole-4-carboxamide], in the experiment on Puccinia recondita [1] (16 mg/l), the inhibition at 16 µg/mL stood at 22%. The inhibition at 1 µg/mL in the experiment with Puccinia recondita [3] (1 mg/l) and in the experiment on Alternaria solani was 0% throughout.
